PubChem BioAssay AID493085 (Broad Institute, 2011)
Results filed as inconclusive are left out. Activity calls are given as the source filed them.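 How the source made its calls: active means falling-signal curve with half-maximal concentration at or below ten times the top tested dose; inconclusive means flat fit at 30 to 70% inhibition, or poor fit; inactive means signal rise, flat within 30%, or potency beyond limit.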

System: NIH3T3 R4 HSE-GFP/Tet-RFP reporter, fluorescence, 48 h
Test: dox-induced RFP signal loss in R4-3T3 cells – cell-based, NIH3T3 R4, HSE-GFP and Tet-On RFP, cherry-pick, set 3, dose response (AID 493085);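 further: cells heat shocked 2 h at 42 °C with doxycycline to induce reporters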

SMILES | AC50
Cc1[nH]c2ccccc2c1/C=C/c1nc2ccccc2c(=O)n1-c1cccc([N+](=O)[O-])c1 | > 19.5 µM (inactive)
COc1ccc(CN2CCC(C(=O)Nc3ccc(Oc4cccnc4)cc3)CC2)c(C)c1C | 17.2 µM
Cn1c(=O)c([N+](=O)[O-])c(Cl)c2ccccc21 | 11.4 µM
Cc1nc2c(-c3ccccc3)cnn2c(N)c1-c1ccccc1 | > 19.5 µM (inactive)
CCOc1cc2c(cc1OCC)C(c1ccc(OC)cc1)N(c1ccccc1)C(=O)C2 (stereo unspecified) | > 19.5 µM (inactive)
COc1ccc(OC)c2c1C(=O)C(Cl)=C(Cl)C2=O | 2.29 µM
CCOc1cc(C(=S)N2CCOCC2)ccc1OS(=O)(=O)c1ccc(OC)cc1 | 16.1 µM
N#CCc1nn(-c2ccccc2)c2ncnc(N)c12 | > 19.5 µM (inactive)
CCN(CC)c1ncnc2ccc(Br)cc12 | 19.9 µM
Nc1nc(F)nc2c1ncn2[C@@H]1O[C@H](CO)[C@@H](O)[C@H]1O | 0.981 µM
COc1c(N2CCN(C(=S)NC3CC4CCC3C4)C(C)C2)c(F)cc2c(=O)c(C(=O)O)cn(C3CC3)c12 (stereo unspecified) | 17.9 µM
CCS(=O)(=O)c1ncc(Cl)c(C(=O)Nc2ccc(S(=O)(=O)N3CCC(C)CC3)cc2)n1 | 16.2 µM
O=C(NCCN1CCCCC1)Nc1ccccc1Cl | > 19.5 µM (inactive)
CCc1ccccc1NC(=O)CSc1nnc(-c2ccncc2)o1 | > 19.5 µM (inactive)
Cc1ccc(S(=O)(=O)N2CCN(CC(=O)N/N=C\c3ccncc3)CC2)cc1 | > 19.5 µM (inactive)
CCOC(=O)c1c(C)[nH]c2c1-c1ccccc1C(=O)C2=O | 1.07 µM
O=S(=O)(c1ccc2c(c1)C(=NO)c1cc(S(=O)(=O)N3CCCCC3)ccc1-2)N1CCCCC1 | 2.9 µM
Nc1ncnc2c1ccn2[C@@H]1O[C@H](CO)[C@@H](O)[C@H]1O | 3.17 µM
NNC(=O)c1ccc(N2CCc3ccccc32)c([N+](=O)[O-])c1 | > 19.5 µM (inactive)
Cc1nn(-c2ccccc2)c(Cl)c1C(=O)N1CCN(c2ncnc3c2cnn3-c2ccccc2)CC1 | 6.77 µM
Cc1nc2c(-c3ccccc3)c(C)[nH]n2c(=O)c1Cl | > 19.5 µM (inactive)
CN(C)c1ccc(CNc2ccc3c(c2)ncn3C(C)(C)C)cc1 | > 19.5 µM (inactive)
O=C(c1nnsc1S(=O)(=O)c1ccc(Cl)cc1)N1CCOCC1 | 17.3 µM
COc1ccccc1N(C)S(=O)(=O)c1ccc(C(=O)NC(C)c2ccccc2)cc1 (stereo unspecified) | > 19.5 µM (inactive)
CCOC(=O)COc1ccccc1/C=C\[N+](=O)[O-] | 5.63 µM
c1ccc2c(c1)OCC(c1csc3ncnc(N4CCOCC4)c13)O2 (stereo unspecified) | 16.6 µM

SMILES | AC50
CCOC(=O)/C(=C\c1ccc([N+](=O)[O-])cc1)C(=O)c1cc(C(C)=O)c(Nc2ccccc2)s1 | 6.97 µM
CCN1C/C(=C/c2ccc(OC)c(O)c2)C(=O)/C(=C/c2ccc(OC)c(O)c2)C1 | 1.8 µM
CC(=O)OCCCNc1cc(Sc2ccc(C)cc2)c2nonc2c1[N+](=O)[O-] | 18.7 µM
COc1ccc(N(Cc2cc3cc(OC)ccc3[nH]c2=O)S(=O)(=O)c2ccc(NC(C)=O)cc2)cc1 | 14.3 µM
O=S(=O)(Nc1cccc(Oc2cnccn2)c1)c1ccc(F)cc1 | > 19.5 µM (inactive)
CCOc1cc(/C=N/NC(=O)c2cccc(S(=O)(=O)N3CCOCC3)c2)ccc1OCC(=O)N(C)C | > 19.5 µM (inactive)
O=C(Nc1nc(-c2cccs2)cs1)c1cccc(S(=O)(=O)N2CCCCCC2)c1 | 0.674 µM
CC1=NNC(=O)/C1=C\c1cn(-c2ccccc2)nc1-c1ccc(Cl)cc1 | 17.4 µM
COc1ccc2[nH]c3c(=O)n(CCCN4CCOCC4)cnc3c2c1 | > 19.5 µM (inactive)
COc1cccc(CN(C)CC(=O)Nc2cccc(C(F)(F)F)c2)c1OC | 18.8 µM
Cc1occc1C(=O)Nc1cc(C(F)(F)F)ccc1Cl | > 19.5 µM (inactive)
O=C(NCc1ccc2c(c1)OCO2)c1nc(S(=O)(=O)Cc2ccccc2)ncc1Cl | 16.1 µM
CCOC(=O)Cc1nnc2c(Nc3ccccc3F)nc3nonc3n12 | 2.32 µM
CCN(CC)S(=O)(=O)c1ccc2c(c1)c(=O)c(C(=O)NCc1ccco1)cn2C | > 19.5 µM (inactive)
O=C(CNC(=S)N(CCCN1CCOCC1)Cc1cccs1)NCc1ccccc1Cl | > 19.5 µM (inactive)
O=C(N/N=C/c1ccc[nH]1)c1ccc(COc2cccc3cccnc23)cc1 | 0.821 µM
CN=C1S/C(=C\c2cc(C)n(-c3ccccc3F)c2C)C(=O)N1C | 16.5 µM
COc1ccccc1NC(=O)c1nc(S(=O)(=O)Cc2ccccc2)ncc1Cl | 4.02 µM
CCOC(=O)N=Nc1c2ccccc2c2nc3no[nH]c3nc12 | 1.91 µM
O=C1C(Cl)=C(Nc2ccc3cn[nH]c3c2)C(=O)c2ccccc21 | 5.26 µM
O=C(CCl)Nc1cc(SCC(O)CO)cc([N+](=O)[O-])c1 (stereo unspecified) | 13.7 µM
COC(=O)c1c(N2C(=O)[C@H]3[C@@H](C2=O)[C@]2(C(=O)Nc4c(C)cccc42)N2CCC[C@@H]32)sc(C)c1C | > 19.5 µM (inactive)
COc1ccc(C[C@H]2NC[C@H](O)[C@H]2OC(C)=O)cc1 | 0.171 µM
COc1ccccc1-c1cc(C(F)(F)F)nc(S(=O)(=O)CCCC(=O)NCc2ccc(F)cc2)n1 | 5.34 µM
Cc1nn(C(C)(C)C)c(C)c1/C=N/OC(=O)Nc1ccc(Cl)c(Cl)c1 | > 19.5 µM (inactive)
Cc1ccc(-c2cn(-c3ccccc3)c(=S)[nH]2)cc1C | > 19.5 µM (inactive)

SMILES | AC50
Cc1cc(C)c(S(=O)(=O)/N=C2\C=C(Nc3ccc(C(=O)O)cc3)C(=O)c3ccccc32)c(C)c1 | 4.97 µM
CCCCn1c(=O)[nH]c(=O)c2c1nc(Cn1ncc(Cl)c(Cl)c1=O)n2CCC | 18.2 µM
CN=c1scc(-c2ccco2)n1/N=C/c1ccc(O)c(O)c1 | 3.01 µM
CC(Nc1ncnc2sccc12)c1ccccc1 (stereo unspecified) | 0.349 µM
CC[C@H]1CN2CCc3cc(OC)c(OC)cc3[C@@H]2C[C@@H]1C[C@H]1NCCc2cc(OC)c(OC)cc21 | 0.549 µM
O=C(NCc1ccncc1)C(=O)Nc1nc(C23CC4CC(CC(C4)C2)C3)cs1 | 12 µM
NC(=O)c1sc2nc3c(c(-c4cccs4)c2c1N)CCCCC3 | 0.404 µM
COC(=O)/C(=C1/Oc2cc(C)oc(=O)c2S1)C(F)(F)F | 1.5 µM
CC1C/C(=N/Nc2nc3ccccc3[nH]2)CC(C)(C)C1 (stereo unspecified) | > 19.5 µM (inactive)
Cc1ccccc1NC(=O)COC(=O)c1ccc(S(C)(=O)=O)c([N+](=O)[O-])c1 | 18.3 µM
Cc1cc([N+](=O)[O-])c2ccccc2[n+]1[O-] | 15.6 µM
CCc1ccc(C2=NNC(=Nc3cccc(S(=O)(=O)N(C)C)c3)SC2)cc1 | 2 µM
CCCCN(C(=O)COc1ccc(C)cc1OC)c1c(N)n(CCC)c(=O)[nH]c1=O | > 19.5 µM (inactive)
O=C(CCl)Nc1cn(-c2ccccc2)nc1-c1ccc(F)cc1 | 5.82 µM
O=C(Nc1nnc(S(=O)(=O)N2CCCCCC2)s1)c1cccc(Br)c1 | 0.889 µM
COc1ccc(CNC(=O)c2cnc3scc(C)n3c2=O)cc1 | > 19.5 µM (inactive)
Cc1cc(C)c2nc(C(F)(F)F)c(C#N)c(N)c2c1 | 1.54 µM
Cc1ccc(OCC(=O)c2cc(C)n(-c3ccccc3)c2C)c([N+](=O)[O-])n1 | 8.65 µM
Oc1ccc(CN2CCCc3ccccc32)c2cccnc12 | 4.67 µM
COc1cccc(-c2nnc3n2N=C(C(C)(C)C)CS3)c1 | 0.484 µM
N#CC1=C(N)Oc2cc(N)ccc2C1c1ccccc1Cl (stereo unspecified) | > 19.5 µM (inactive)
CCOc1ccc(NCC(=O)c2ccc(C)cc2)cc1 | 12.7 µM
Cc1oc2c(c1C(=O)NCc1cccnc1)C(=O)c1ccccc1C2=O | 0.891 µM
Cc1ccc(C)c(NC(=O)CCc2nnc3ccc(NCc4ccco4)nn23)c1 | > 19.5 µM (inactive)
